# From US5773411A, “Cyclic compounds linked by a heterocyclic ring useful as inhibitors of platelet glycoprotein IIB/IIIA” (The DuPont Merck Pharmaceutical Company, priority 1994, dated 1998)
# System: agonist-induced platelet aggregation in platelet-rich plasma (PRP)
# Assay: Platelet Aggregation Assay
# Format: cell-based
# Conditions: human PRP; agonists ADP, collagen, arachidonate, epinephrine, thrombin; compound added prior to activation of the platelets
# Experimental: Platelet Aggregation Assay
# Venous blood was obtained from the arm of a healthy human donor who was drug-free and aspirin-free for at least two weeks prior to blood collection. Blood was collected into 10 ml citrated Vacutainer tubes. The blood was centrifuged for 15 minutes at 150×g at room temperature, and platelet-rich plasma (PRP) was removed. The remaining blood was centrifuged for 15 minutes at 1500×g at room temperature, and platelet-poor plasma (PPP) was removed. Samples were assayed on a aggregometer (PAP-4 Platelet Aggregation Profiler), using PPP as the blank (100% transmittance). 200 μl of PRP was added to each micro test tube, and transmittance was set to 0%. 20 μl of various agonists (ADP, collagen, arachidonate, epinephrine, thrombin) were added to each tube, and the aggregation profiles were plotted (% transmittance versus time). The results were expressed as % inhibition of agonist-induced platelet aggregation. For the IC50 evaluation, the test compounds were added at various concentrations prior to the activation of the platelets.
row,Compound,IC50 [µM]
1,"CC(C)[C@H]1NC(=O)C2=CC=C(CNC(=O)[C@H](CC(=O)O)NC(=O)CNC(=O)[C@H](CCCNC(=N)N)N(C)C1=O)O2 [Example 1, cyclo-(D-Val-N(Me)Arg-Gly-Asp-[5-aminomethyl]-2-furoate)]",< 1
2,cyclo-(D-Val-N(Me)Arg-Gly-Asp-[2-amino]-4-thiazoleacetate) [Example 4],< 1
3,"CC(C)[C@H]1NC(=O)c2cccc(n2)CNC(=O)[C@H](CC(=O)O)NC(=O)CNC(=O)[C@H](CCCNC(=N)N)N(C)C1=O [Example 3, cyclo(6-(D-Val-NMeArg-Gly-Asp)aminomethyl-2-pyridinecarboxylate)]",1 to 10
